Reference: ChEMBL document CHEMBL1909046, “DrugMatrix in vitro pharmacology data”

What was measured:
[1] = DRUGMATRIX: beta-Lactamase enzyme inhibition (substrate: Nitrocefin); parameters: species or system Bacillus cereus; conditions: Not Active = under 50% inhibition at 10 µM
[2] = molecular target: Cytochrome P450 2D6 (Homo sapiens, UniProt P10635); conditions: bti-tn-5b1-4; further: in other assays of this panel Not Active means under 50% inhibition at 10 µM
[3] = DRUGMATRIX: Interleukin IL-1 radioligand binding (ligand: [125I] interleukin 1beta); assay type: cell membranes, Membrane; conditions: nih3t3; Not Active = under 50% inhibition at 10 µM
[4] = molecular target: Beta-2 adrenergic receptor (Homo sapiens, UniProt P07550); assay: DRUGMATRIX: Adrenergic beta2 radioligand binding (ligand: [3H] CGP-12177); assay type: cell membranes, CHO, Membrane; conditions: cho; Not Active = under 50% inhibition at 10 µM
[5] = molecular target: Mu-type opioid receptor (Homo sapiens, UniProt P35372); assay: DRUGMATRIX: Opiate mu (OP3, MOP) radioligand binding (ligand: [3H] Diprenorphine); assay type: cell membranes, CHO-K1, Membrane; conditions: cho-k1; Not Active = under 50% inhibition at 10 µM
[6] = molecular target: T1, Muscarinic acetylcholine receptor M5 (Homo sapiens, UniProt P08912); assay type: cell membranes, CHO-K1, Membrane; further: in other assays of this panel Not Active means under 50% inhibition at 10 µM
T1 sequence (P08912 whole entry): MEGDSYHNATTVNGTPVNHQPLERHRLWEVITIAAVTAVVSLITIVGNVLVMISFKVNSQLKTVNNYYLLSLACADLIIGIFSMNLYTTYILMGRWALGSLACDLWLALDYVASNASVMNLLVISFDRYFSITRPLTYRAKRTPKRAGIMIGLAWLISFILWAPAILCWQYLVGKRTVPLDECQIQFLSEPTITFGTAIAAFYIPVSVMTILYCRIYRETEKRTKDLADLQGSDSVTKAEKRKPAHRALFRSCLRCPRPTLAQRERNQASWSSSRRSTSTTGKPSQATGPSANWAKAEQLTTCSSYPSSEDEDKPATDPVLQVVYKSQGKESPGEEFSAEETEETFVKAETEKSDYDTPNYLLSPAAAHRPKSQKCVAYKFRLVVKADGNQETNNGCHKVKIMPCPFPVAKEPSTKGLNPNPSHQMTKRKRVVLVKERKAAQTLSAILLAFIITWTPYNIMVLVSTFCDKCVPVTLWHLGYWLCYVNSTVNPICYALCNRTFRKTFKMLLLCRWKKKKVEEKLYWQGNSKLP

[7] = DRUGMATRIX: ATPase, Na+/K+ enzyme inhibition (substrate: ATP); assay type: tissue-based, Sus scrofa, Heart; conditions: Not Active = under 50% inhibition at 10 µM
[8] = DRUGMATRIX: GABAA, Chloride Channel, TBOB radioligand binding (ligand: [3H] TBOB); assay type: cell membranes, Rattus norvegicus, Wistar, Cerebral cortex, Membrane; conditions: Not Active = under 50% inhibition at 10 µM

Cytochrome P450 2D6, sequence (P10635 whole entry): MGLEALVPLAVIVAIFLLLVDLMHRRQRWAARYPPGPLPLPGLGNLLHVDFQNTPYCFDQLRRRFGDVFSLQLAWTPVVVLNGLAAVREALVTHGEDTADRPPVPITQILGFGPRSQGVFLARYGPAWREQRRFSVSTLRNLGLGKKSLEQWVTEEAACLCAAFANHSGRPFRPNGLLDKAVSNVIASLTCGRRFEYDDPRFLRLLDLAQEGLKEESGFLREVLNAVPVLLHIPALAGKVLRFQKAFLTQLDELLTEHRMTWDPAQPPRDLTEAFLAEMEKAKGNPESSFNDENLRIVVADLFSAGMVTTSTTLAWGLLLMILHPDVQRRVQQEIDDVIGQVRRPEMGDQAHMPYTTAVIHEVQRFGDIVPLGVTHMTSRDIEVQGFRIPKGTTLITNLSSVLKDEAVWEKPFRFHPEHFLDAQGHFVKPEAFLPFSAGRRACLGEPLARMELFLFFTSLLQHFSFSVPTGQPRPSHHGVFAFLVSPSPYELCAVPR
Mu-type opioid receptor, sequence (P35372 whole entry): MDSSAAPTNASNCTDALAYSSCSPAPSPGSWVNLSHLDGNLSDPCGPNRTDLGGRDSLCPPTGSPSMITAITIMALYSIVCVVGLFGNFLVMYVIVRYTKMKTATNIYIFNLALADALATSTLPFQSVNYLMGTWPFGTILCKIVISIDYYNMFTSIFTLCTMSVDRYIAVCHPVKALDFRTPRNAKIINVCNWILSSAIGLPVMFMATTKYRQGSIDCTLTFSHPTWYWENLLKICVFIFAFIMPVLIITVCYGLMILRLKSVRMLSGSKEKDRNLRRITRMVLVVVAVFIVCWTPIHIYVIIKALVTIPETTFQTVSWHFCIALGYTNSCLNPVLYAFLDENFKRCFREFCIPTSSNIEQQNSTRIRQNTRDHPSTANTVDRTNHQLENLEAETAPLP
Beta-2 adrenergic receptor, sequence (P07550 whole entry): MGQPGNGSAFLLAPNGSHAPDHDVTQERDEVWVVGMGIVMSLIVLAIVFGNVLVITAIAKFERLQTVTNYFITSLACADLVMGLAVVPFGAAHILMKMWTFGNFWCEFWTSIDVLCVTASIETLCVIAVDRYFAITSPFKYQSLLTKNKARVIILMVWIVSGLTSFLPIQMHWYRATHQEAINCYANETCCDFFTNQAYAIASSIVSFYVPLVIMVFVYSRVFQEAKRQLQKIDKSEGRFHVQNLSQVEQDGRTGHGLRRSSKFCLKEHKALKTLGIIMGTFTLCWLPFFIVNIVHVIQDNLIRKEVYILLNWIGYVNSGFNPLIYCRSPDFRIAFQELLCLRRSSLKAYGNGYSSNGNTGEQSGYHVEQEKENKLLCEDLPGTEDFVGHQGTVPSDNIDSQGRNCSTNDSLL

O=C1CN=C(c2ccccc2Cl)c2cc([N+](=O)[O-])ccc2N1 [CLONAZEPAM]
Not Active: IC50 [1] | Ki [1] | IC50 [2] | Ki [2] | IC50 [3] | Ki [3] | IC50 [4] | IC50 [5] | IC50 ([6]; cho-k1) | IC50 [7] | Ki [7] | IC50 [8] | Ki [8]

Nc1ccn([C@@H]2O[C@H](CO)[C@@H](O)[C@@H]2O)c(=O)n1 [CYTARABINE]
Not Active: IC50 [1] | Ki [1] | IC50 [2] | Ki [2] | IC50 [3] | Ki [3] | IC50 [4] | IC50 [5] | IC50 ([6]; cho-k1) | IC50 [7] | Ki [7] | IC50 [8] | Ki [8]

C[C@@H]1C[C@H]2[C@@H]3CCC4=CC(=O)C=C[C@]4(C)[C@@]3(F)[C@@H](O)C[C@]2(C)[C@H]1C(=O)CO [DESOXIMETASONE]
Not Active: IC50 [1] | Ki [1] | IC50 [2] | Ki [2] | IC50 [3] | Ki [3] | IC50 [4] | IC50 [5] | IC50 ([6]; cho-k1) | IC50 [7] | Ki [7] | IC50 [8] | Ki [8]

CN(C)CC[C@@H](c1ccc(Cl)cc1)c1ccccn1 [DEXCHLORPHENIRAMINE]
0.749 µM: Ki ([6]; read-out: Ki)
1.04 µM: IC50 ([6]; read-out: IC50)
Not Active: IC50 [1] | Ki [1] | IC50 [2] | Ki [2] | IC50 [3] | Ki [3] | IC50 [4] | IC50 [5] | IC50 [7] | Ki [7] | IC50 [8] | Ki [8]

C[C@@H]1CC[C@@]2(OC1)O[C@H]1[C@@H](O)[C@H]3[C@@H]4CC[C@H]5C[C@@H](O[C@@H]6O[C@H](CO)[C@H](O[C@@H]7O[C@H](CO)C(O)[C@H](O[C@@H]8OC[C@@H](O)[C@H](O)[C@H]8O)[C@H]7O[C@@H]7O[C@H](CO)[C@H](O)[C@H](O[C@@H]8O[C@H](CO)[C@@H](O)[C@H](O)[C@H]8O)[C@H]7O)[C@H](O)[C@H]6O)[C@H](O)C[C@]5(C)[C@H]4CC[C@]3(C)[C@H]1[C@@H]2C (stereo not given in full) [DIGITONIN]
Not Active: IC50 [1] | Ki [1] | IC50 [2] | Ki [2] | IC50 [3] | Ki [3] | IC50 [4] | IC50 [5] | IC50 ([6]; cho-k1) | IC50 [7] | Ki [7] | IC50 [8] | Ki [8]

C[C@H]1O[C@@H](n2cc(F)c(=O)[nH]c2=O)[C@H](O)[C@@H]1O [DOXIFLURIDINE]
Not Active: IC50 [1] | Ki [1] | IC50 [2] | Ki [2] | IC50 [3] | Ki [3] | IC50 [4] | IC50 [5] | IC50 ([6]; cho-k1) | IC50 [7] | Ki [7] | IC50 [8] | Ki [8]

Cn1c(=O)c2c(ncn2CC(O)CO)n(C)c1=O (stereo not given) [DYPHYLLINE]
Not Active: IC50 [1] | Ki [1] | IC50 [2] | Ki [2] | IC50 [3] | Ki [3] | IC50 [4] | IC50 [5] | IC50 ([6]; cho-k1) | IC50 [7] | Ki [7] | IC50 [8] | Ki [8]

CC[C@H]1CN2CCc3cc(OC)c(OC)cc3[C@@H]2C[C@@H]1C[C@H]1NCCc2cc(OC)c(OC)cc21 [EMETINE]
Not Active: IC50 [1] | Ki [1] | IC50 [2] | Ki [2] | IC50 [3] | Ki [3] | IC50 [4] | IC50 [5] | IC50 ([6]; cho-k1) | IC50 [7] | Ki [7] | IC50 [8] | Ki [8]

COC(=O)CCc1ccc(OCC(O)CNC(C)C)cc1 (stereo not given) [ESMOLOL]
Not Active: IC50 [1] | Ki [1] | IC50 [2] | Ki [2] | IC50 [3] | Ki [3] | IC50 [4] | IC50 [5] | IC50 ([6]; cho-k1) | IC50 [7] | Ki [7] | IC50 [8] | Ki [8]

CCC1(C)CC(=O)NC1=O (stereo not given) [ETHOSUXIMIDE]
Not Active: IC50 [1] | Ki [1] | IC50 [2] | Ki [2] | IC50 [3] | Ki [3] | IC50 [4] | IC50 [5] | IC50 ([6]; cho-k1) | IC50 [7] | Ki [7] | IC50 [8] | Ki [8]

C#C[C@]1(OC(C)=O)CC[C@H]2[C@@H]3CCC4=C[C@@H](OC(C)=O)CC[C@@H]4[C@H]3CC[C@@]21C [ETHYNODIOL DIACETATE]
Not Active: IC50 [1] | Ki [1] | IC50 [2] | Ki [2] | IC50 [3] | Ki [3] | IC50 [4] | IC50 [5] | IC50 ([6]; cho-k1) | IC50 [7] | Ki [7] | IC50 [8] | Ki [8]

C=CCc1ccc(O)c(OC)c1 [EUGENOL]
Not Active: IC50 [1] | Ki [1] | IC50 [2] | Ki [2] | IC50 [3] | Ki [3] | IC50 [4] | IC50 [5] | IC50 ([6]; cho-k1) | IC50 [7] | Ki [7] | IC50 [8] | Ki [8]

CC(C(=O)O)c1cccc(Oc2ccccc2)c1 (stereo not given) [FENOPROFEN]
Not Active: IC50 [1] | Ki [1] | IC50 [2] | Ki [2] | IC50 [3] | Ki [3] | IC50 [4] | IC50 [5] | IC50 ([6]; cho-k1) | IC50 [7] | Ki [7] | IC50 [8] | Ki [8]

CC(C)(C)NC(=O)[C@H]1CC[C@H]2[C@@H]3CC[C@H]4NC(=O)C=C[C@]4(C)[C@H]3CC[C@]12C [FINASTERIDE]
Not Active: IC50 [1] | Ki [1] | IC50 [2] | Ki [2] | IC50 [3] | Ki [3] | IC50 [4] | IC50 [5] | IC50 ([6]; cho-k1) | IC50 [7] | Ki [7] | IC50 [8] | Ki [8]

Nc1ccn([C@@H]2O[C@H](CO)[C@@H](O)C2(F)F)c(=O)n1 [GEMCITABINE]
Not Active: IC50 [1] | Ki [1] | IC50 [2] | Ki [2] | IC50 [3] | Ki [3] | IC50 [4] | IC50 [5] | IC50 ([6]; cho-k1) | IC50 [7] | Ki [7] | IC50 [8] | Ki [8]

N=C(N)NC(=O)Cc1c(Cl)cccc1Cl [GUANFACINE]
Not Active: IC50 [1] | Ki [1] | IC50 [2] | Ki [2] | IC50 [3] | Ki [3] | IC50 [4] | IC50 [5] | IC50 ([6]; cho-k1) | IC50 [7] | Ki [7] | IC50 [8] | Ki [8]

Oc1c(Cl)cc(Cl)c(Cl)c1Cc1c(O)c(Cl)cc(Cl)c1Cl [HEXACHLOROPHENE]
6.13 µM: IC50 ([7]; read-out: IC50)
Not Active: IC50 [1] | Ki [1] | IC50 [2] | Ki [2] | IC50 [3] | Ki [3] | IC50 [4] | IC50 [5] | IC50 ([6]; cho-k1) | IC50 [8] | Ki [8]

NNc1nncc2ccccc12 [HYDRALAZINE]
Not Active: IC50 [1] | Ki [1] | IC50 [2] | Ki [2] | IC50 [3] | Ki [3] | IC50 [4] | IC50 [5] | IC50 ([6]; cho-k1) | IC50 [7] | Ki [7] | IC50 [8] | Ki [8]

CC(C)NNC(=O)c1ccncc1 [IPRONIAZID]
Not Active: IC50 [1] | Ki [1] | IC50 [2] | Ki [2] | IC50 [3] | Ki [3] | IC50 [4] | IC50 [5] | IC50 ([6]; cho-k1) | IC50 [7] | Ki [7] | IC50 [8] | Ki [8]

O=c1cc(N2CCOCC2)oc2c(-c3ccccc3)cccc12 [LY-294002]
Not Active: IC50 [1] | Ki [1] | IC50 [2] | Ki [2] | IC50 [3] | Ki [3] | IC50 [4] | IC50 [5] | IC50 ([6]; cho-k1) | IC50 [7] | Ki [7] | IC50 [8] | Ki [8]
